These results are taken from patent US5977150A, “Amino acid derivatives of diaryl 1,3,4-oxadiazolone” (Bristol-Myers Squibb Company, priority 1999, dated 1999).

For one data set, the system named is cortical infarct volume. Briefly: Focal stroke model: permanent MCA and CCA occlusion with temporary right CCA occlusion. The class given is in vivo. The conditions noted are these: 10 μg/kg i.v. single bolus two hours after MCA occlusion; infarct measured 24 hours after MCAO; Wistar rat. The method, then:
To determine the ability of the compounds of the present invention to reduce cell loss resulting from neuronal ischemia, a standard focal cerebral ischemia is induced by permanent occlusion of the left middle cerebral artery (MCA) and common carotid artery (CCA) with one hour occlusion of the right CCA in the Wistar rat. The surgeries are performed using the sub-temporal approach of A. Tamura, et al., J. Cereb. Blood Flow Metab., 1, pp. 53-60, (1981) and its modifications [K. Osborne, et al., J. Neurol Neurosurg. Psychiatry, 50, pp. 402-410 (1987) and S. Menzies, et al., Neurosurgery, 31, pp. 100-107, (1992).]
The compound of Example 1 was evaluated in the focal stroke model involving permanent occlusion of the left MCA (MCAO) and CCA (CCAO) and temporary occlusion of the right CCA in the Wistar rat. This procedure results in a reliably large neocortical infarct volume that is measured by means of vital dye exclusion in serial slices through the brain 24 hours after MCAO. In the present test, compounds were administered using an i.v. or i.p. route of administration two hours after occlusion.

In data set [1] the test system is non-BK native currents in the oocytes. Description: Effect on non-BK (IBTX-insensitive) native currents in Xenopus oocytes under voltage clamp. Type of data set: cell-based. The conditions noted are these: at the tested concentration (1 μM). On the procedure: (§1) The ability of the compound of Example 1 to open BK channels and increase whole-cell outward (K^+) BK-mediated currents was assessed under voltage-clamp conditions by determining their ability to increase cloned mammalian (mSlo or hSlo) BK-mediated outward current heterologously expressed in Xenopus oocytes [Butler, A., et al., Science, 261, pp. 221-224 (1993); and Dworetzky, S. I., et al., Mol. Brain Res., 27, pp.189-193 (1994)]. The two BK constructs employed represent nearly structurally identical homologous proteins, and have proven to be pharmacologically identical in our tests. To isolate BK current from native (background, non-BK) current, the specific and potent BK channel-blocking toxin iberiotoxin (IBTX) [Galvez, A., et al., J. Biol. Chem, 265, pp. 11083-11090 (1990)] was employed at a supramaximal concentration (50 nM). The relative contribution of BK channels current to total outward current was determined by subtraction of the current remaining in the presence of IBTX (non-BK current) from the current profiles obtained in all other experimental conditions (control, drug, and wash). […]

Data set [2] relates to cloned mammalian (mSlo or hSlo) BK. Briefly: Two-electrode voltage clamp of cloned BK-mediated outward current expressed in Xenopus oocytes. Type of data set: cell-based. The conditions noted are these: 1 μM; at least 5 oocytes; IBTX 50 nM used to isolate BK current. On the procedure:
as §1

A short description of data set [3]: Rapid screen of prodrug hydrolysis and release of the drug in plasma. The class given is in vitro ADME. The conditions noted are these: fresh rat plasma, 37° C., 10 μg/mL from a 1 mg/mL PEG-400 stock, analysis 5 minutes after incubation, HPLC. The method, then: A rapid screen to determine the ability of prodrugs to hydrolyze and release the drug (compound of Example 1) is conducted as follows. A 1 mg/mL stock solution of the prodrug is prepared in distilled water or acetonitrile or PEG-400. Plasma from freshly collected rat or human blood is used in this assay. To 1 mL of plasma at 37° C. was added 10 μL of stock solution of prodrug and mixed gently. Immediately after the mixing, 100 μL of plasma was removed and quenched with 300 μL of acetontrile (Zero time sample). Samples were also obtained at 30 minutes and quenched immediately. The quenched samples were centrifuged to obtain a clear supernatant for analysis. The stock solution, T=0 and T=30 samples were analyzed by a HPLC assay that separates the drug from the prodrug. Based on the relative peak areas of prodrug and drug in these samples, different prodrugs are characterized as fast, moderate and slow release agents. For example, in this model, the compound of Example 9 was dissolved in PEG-400 at a concentration of 1 mg/mL and incubated at 10 μg/mL in fresh rat plasma at 37° C.

Regarding `O=c1oc(-c2ccc(C(F)(F)F)cc2)nn1Cc1cc(Cl)ccc1O` [Example 1, 3-[(5-Chloro-2-hydroxyphenyl)methyl]-5-[4-(trifluoromethyl)phenyl]-1,3,4-oxadiazol-2(3H)-one], in the data set with cortical infarct volume, the “reduction of cortical infarct volume vs vehicle-treated (water) control” value is on record as “about 18%”. In addition, in data set [1], the “effect on non-BK native currents in the oocytes” value is “did not effect non-BK native currents”. The “BK current, % of control of IBTX-sensitive current” value in data set [2] is 126 % of control.
As for `CN[C@@H](CC(C)C)C(=O)Oc1ccc(Cl)cc1Cn1nc(-c2ccc(C(F)(F)F)cc2)oc1=O` [Example 9, 3-[(5-Chloro-2-hydroxyphenyl)methyl]-5-[4-(trifluoromethyl)phenyl]-1,3,4-oxadiazol-2(3H)-one, N-Methyl (L)-Leucine ester], in data set [3], the “conversion of prodrug to drug (compound of Example 1) in plasma” value is listed as “conversion of the compound of Example 9 to the compound of Example 1”.
